For data set [1], the target named is T1, Glutamate receptor ionotropic AMPA (Homo sapiens, UniProt P42261+P42262+P42263+P48058). Kind of data set: Displacement of [3H]AMPA from AMPA receptor (unknown origin). It counts as protein-complex assay.
Data set [2] has as its target T1, Glutamate receptor ionotropic AMPA. Kind of data set: Displacement of [3H]CNQX from AMPA receptor (unknown origin). It is filed as protein-complex assay. On the technique in general: In a radioligand displacement assay an active substance lowers the binding of a labelled ligand.
The target is the same in data set [3]. As to the kind of experiment: Displacement of [3H]kainic acid from AMPA receptor (unknown origin). It is filed as protein-complex assay.
The target in data set [4] is Bromodomain-containing protein 4 (Homo sapiens, UniProt O60885). Kind of data set: Inhibition of BRD4 (unknown origin) using histone-H4 as substrate incubated for 15 mins and measured after 1 hr by AlphaScreen assay. (In Alpha technology, singlet oxygen from a donor bead excites a nearby acceptor bead.)
The next data set deals with MCF7. As to the kind of experiment: Antiproliferative activity against human MCF7 cells. It counts as functional, cell-based.
The test system of a further data set is HepG2. Kind of data set: Antiproliferative activity against human HepG2 cells. It counts as functional, cell-based.
For data set [5], the target named is Epidermal growth factor receptor (Homo sapiens, UniProt P00533). Kind of data set: Inhibition of wild-type EGFR (unknown origin).
Data set [6] deals with Epidermal growth factor receptor (Homo sapiens, UniProt P00533, L858R). As to the kind of experiment: Inhibition of EGFR L858R mutant (unknown origin).
The subject of a further data set is HCT-116. As to the kind of experiment: Antiproliferative activity against human HCT-116 cells. It is filed as functional, cell-based.
A further data set relates to WI-38. As to the kind of experiment: Antiproliferative activity against human WI-38 cells. It is filed as functional, cell-based.
The next data set has as its target Glutamate receptor 2 (Homo sapiens, UniProt P42262). Kind of data set: Binding affinity to GluA2 receptor (unknown origin).
Data set [7] has as its target Glutamate receptor ionotropic, kainate 1 (Homo sapiens, UniProt P39086). Kind of data set: Binding affinity to GluK1 receptor (unknown origin).
Data set [8] has as its target Glutamate receptor ionotropic, kainate 2 (Homo sapiens, UniProt Q13002). Kind of data set: Binding affinity to GluK2 receptor (unknown origin).
For data set [9], the target named is T2, Glutamate receptor ionotropic, kainate 5 (Homo sapiens, UniProt Q16478).
T2 sequence (Q16478 whole entry): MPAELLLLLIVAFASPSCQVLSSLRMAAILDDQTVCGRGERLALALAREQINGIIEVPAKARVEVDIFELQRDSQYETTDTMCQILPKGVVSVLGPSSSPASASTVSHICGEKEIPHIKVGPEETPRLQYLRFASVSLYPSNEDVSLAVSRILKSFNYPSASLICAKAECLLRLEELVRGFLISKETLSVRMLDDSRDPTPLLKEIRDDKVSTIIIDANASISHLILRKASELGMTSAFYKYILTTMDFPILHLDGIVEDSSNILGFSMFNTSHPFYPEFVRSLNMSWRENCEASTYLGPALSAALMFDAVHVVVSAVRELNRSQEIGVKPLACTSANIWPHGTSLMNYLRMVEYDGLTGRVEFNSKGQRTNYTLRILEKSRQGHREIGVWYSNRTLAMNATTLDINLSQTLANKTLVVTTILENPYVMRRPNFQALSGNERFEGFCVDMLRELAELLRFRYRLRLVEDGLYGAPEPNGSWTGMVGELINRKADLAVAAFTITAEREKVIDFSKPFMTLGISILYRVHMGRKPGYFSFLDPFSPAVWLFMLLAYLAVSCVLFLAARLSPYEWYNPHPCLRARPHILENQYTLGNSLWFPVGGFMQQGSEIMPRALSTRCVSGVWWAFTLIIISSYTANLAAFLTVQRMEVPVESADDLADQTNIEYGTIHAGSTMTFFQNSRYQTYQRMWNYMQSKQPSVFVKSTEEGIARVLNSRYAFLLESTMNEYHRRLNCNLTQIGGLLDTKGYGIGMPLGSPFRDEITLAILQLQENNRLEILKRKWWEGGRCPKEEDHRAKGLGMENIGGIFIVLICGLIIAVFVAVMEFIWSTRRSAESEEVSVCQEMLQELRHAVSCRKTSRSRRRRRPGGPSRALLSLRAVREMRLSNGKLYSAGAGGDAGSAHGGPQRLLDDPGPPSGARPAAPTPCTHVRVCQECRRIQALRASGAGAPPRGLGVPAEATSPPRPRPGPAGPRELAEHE
Kind of data set: Binding affinity to GluK5 receptor (unknown origin).

The next data set deals with Mus musculus. As to the kind of experiment: Antiinflammatory activity against mouse assessed as reduction in carragenan-induced paw edema at 25 mg/kg,po treated 1 hr prior to carrageenan challenge. It is filed as functional. Also noted: scale not given: the % may be the effect or the level left.
Data set [10] in a line: Displacement of [3H]glycine from AMPA receptor (unknown origin). It is filed as protein-complex assay, Homo sapiens.
Data set [11] deals with Glutamate [NMDA] receptor. As to the kind of experiment: Displacement of [3H]MK-801 from NMDA receptor (unknown origin). It counts as protein-complex assay, Homo sapiens.
The target in data set [12] is T1, Glutamate receptor ionotropic AMPA. Kind of data set: Antagonist activity at AMPA receptor (unknown origin) assessed as AMPA-induced depolarizations. It counts as protein-complex assay.
Data set [13] addresses Glutamate [NMDA] receptor. As to the kind of experiment: Antagonist activity at NMDA receptor (unknown origin) assessed as NMDA-induced depolarizations. It counts as protein-complex assay, Homo sapiens.
Data set [14] in a line: Displacement of [3H]AMPA from NMDA receptor (unknown origin). It is filed as protein-complex assay, Homo sapiens.
The target of data set [15] is Glutamate [NMDA] receptor. As to the kind of experiment: Displacement of [3H]MDL from NMDA receptor (unknown origin). It is filed as protein-complex assay, Homo sapiens.
Data set [16] has as its system Staphylococcus aureus. As to the kind of experiment: Antibacterial activity against Staphylococcus aureus assessed as diameter zone of inhibition. It counts as functional.
The test system of a further data set is Bacillus subtilis. As to the kind of experiment: Antibacterial activity against Bacillus subtilis assessed as diameter zone of inhibition. It is filed as functional.
The test system of data set [17] is Escherichia coli. As to the kind of experiment: Antibacterial activity against Escherichia coli assessed as diameter zone of inhibition. It is filed as functional.
The test system of data set [18] is Pseudomonas aeruginosa. As to the kind of experiment: Antibacterial activity against Pseudomonas aeruginosa assessed as diameter zone of inhibition. It counts as functional.
In the next data set the test system is Salmonella typhimurium. As to the kind of experiment: Antibacterial activity against Salmonella typhimurium assessed as diameter zone of inhibition. It counts as functional, Salmonella enterica subsp. enterica serovar Typhimurium.
Data set [19] relates to Streptococcus pneumoniae. Kind of data set: Antibacterial activity against Streptococcus pneumoniae assessed as diameter zone of inhibition. It is filed as functional.
Data set [20] concerns Pseudomonas aeruginosa. As to the kind of experiment: Antibacterial activity against Pseudomonas aeruginosa. It is filed as functional.
The test system of data set [21] is Staphylococcus aureus. As to the kind of experiment: Antibacterial activity against Staphylococcus aureus. It counts as functional.
Data set [22] has as its system Escherichia coli. As to the kind of experiment: Antibacterial activity against Escherichia coli W3110. It is filed as functional.
Data set [23] is described as follows: Inhibition of Escherichia coli topoisomerase 4.
Data set [24] in a line: Lipophilicity, logD of compound. It counts as physicochemical. The following applies: octanol/water.
Data set [25] in a line: Dissociation constant, pKa of the compound. It is filed as physicochemical.
The test system of data set [26] is Streptococcus pneumoniae. As to the kind of experiment: Antibacterial activity against Streptococcus pneumoniae. It counts as functional.
A further data set concerns Toxoplasma gondii. As to the kind of experiment: Anti-tachyzoite activity against Toxoplasma gondii at 100 uM. It counts as functional, type III.
The nature of data set [27]: Inhibition of KA-induced cytotoxicity in human hippocampal cell culture. It counts as toxicity, cell-based. The settings on record: Hippocampal neurone.

In brackets after ≈: the same amount, converted by molar mass.

Chain of Epidermal growth factor receptor (Homo sapiens, UniProt P00533, L858R) (P00533 25-1210 L858R limits assumed): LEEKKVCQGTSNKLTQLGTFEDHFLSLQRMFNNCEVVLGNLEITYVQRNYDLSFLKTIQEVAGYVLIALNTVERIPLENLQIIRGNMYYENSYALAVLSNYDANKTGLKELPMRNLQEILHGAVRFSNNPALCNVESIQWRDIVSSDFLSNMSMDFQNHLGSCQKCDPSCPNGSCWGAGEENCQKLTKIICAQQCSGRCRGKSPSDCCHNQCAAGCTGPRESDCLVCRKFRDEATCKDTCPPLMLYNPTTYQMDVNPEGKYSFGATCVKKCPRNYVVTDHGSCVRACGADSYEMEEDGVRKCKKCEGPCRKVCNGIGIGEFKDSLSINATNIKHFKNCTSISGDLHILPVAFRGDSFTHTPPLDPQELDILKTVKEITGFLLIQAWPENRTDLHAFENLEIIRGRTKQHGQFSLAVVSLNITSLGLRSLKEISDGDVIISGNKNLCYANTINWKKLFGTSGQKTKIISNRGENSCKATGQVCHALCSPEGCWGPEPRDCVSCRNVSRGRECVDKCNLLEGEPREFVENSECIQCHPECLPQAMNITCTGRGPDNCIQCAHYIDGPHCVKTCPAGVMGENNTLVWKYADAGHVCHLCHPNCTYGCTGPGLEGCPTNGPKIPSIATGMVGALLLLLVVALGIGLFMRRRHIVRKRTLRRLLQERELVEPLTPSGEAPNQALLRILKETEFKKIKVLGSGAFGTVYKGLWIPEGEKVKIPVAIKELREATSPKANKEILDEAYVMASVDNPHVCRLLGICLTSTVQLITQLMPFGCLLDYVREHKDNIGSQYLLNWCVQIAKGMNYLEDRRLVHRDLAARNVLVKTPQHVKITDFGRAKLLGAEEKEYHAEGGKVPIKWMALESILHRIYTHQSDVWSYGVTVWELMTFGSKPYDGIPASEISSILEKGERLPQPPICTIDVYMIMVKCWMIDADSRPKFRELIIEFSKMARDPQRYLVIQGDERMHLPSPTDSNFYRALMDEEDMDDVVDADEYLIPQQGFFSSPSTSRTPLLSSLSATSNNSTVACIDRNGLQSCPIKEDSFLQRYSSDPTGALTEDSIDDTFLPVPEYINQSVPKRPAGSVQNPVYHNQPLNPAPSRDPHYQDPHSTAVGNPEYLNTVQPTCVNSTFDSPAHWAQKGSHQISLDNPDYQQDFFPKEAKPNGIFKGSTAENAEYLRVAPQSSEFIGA
Chain of Epidermal growth factor receptor (Homo sapiens, UniProt P00533) (P00533 whole entry): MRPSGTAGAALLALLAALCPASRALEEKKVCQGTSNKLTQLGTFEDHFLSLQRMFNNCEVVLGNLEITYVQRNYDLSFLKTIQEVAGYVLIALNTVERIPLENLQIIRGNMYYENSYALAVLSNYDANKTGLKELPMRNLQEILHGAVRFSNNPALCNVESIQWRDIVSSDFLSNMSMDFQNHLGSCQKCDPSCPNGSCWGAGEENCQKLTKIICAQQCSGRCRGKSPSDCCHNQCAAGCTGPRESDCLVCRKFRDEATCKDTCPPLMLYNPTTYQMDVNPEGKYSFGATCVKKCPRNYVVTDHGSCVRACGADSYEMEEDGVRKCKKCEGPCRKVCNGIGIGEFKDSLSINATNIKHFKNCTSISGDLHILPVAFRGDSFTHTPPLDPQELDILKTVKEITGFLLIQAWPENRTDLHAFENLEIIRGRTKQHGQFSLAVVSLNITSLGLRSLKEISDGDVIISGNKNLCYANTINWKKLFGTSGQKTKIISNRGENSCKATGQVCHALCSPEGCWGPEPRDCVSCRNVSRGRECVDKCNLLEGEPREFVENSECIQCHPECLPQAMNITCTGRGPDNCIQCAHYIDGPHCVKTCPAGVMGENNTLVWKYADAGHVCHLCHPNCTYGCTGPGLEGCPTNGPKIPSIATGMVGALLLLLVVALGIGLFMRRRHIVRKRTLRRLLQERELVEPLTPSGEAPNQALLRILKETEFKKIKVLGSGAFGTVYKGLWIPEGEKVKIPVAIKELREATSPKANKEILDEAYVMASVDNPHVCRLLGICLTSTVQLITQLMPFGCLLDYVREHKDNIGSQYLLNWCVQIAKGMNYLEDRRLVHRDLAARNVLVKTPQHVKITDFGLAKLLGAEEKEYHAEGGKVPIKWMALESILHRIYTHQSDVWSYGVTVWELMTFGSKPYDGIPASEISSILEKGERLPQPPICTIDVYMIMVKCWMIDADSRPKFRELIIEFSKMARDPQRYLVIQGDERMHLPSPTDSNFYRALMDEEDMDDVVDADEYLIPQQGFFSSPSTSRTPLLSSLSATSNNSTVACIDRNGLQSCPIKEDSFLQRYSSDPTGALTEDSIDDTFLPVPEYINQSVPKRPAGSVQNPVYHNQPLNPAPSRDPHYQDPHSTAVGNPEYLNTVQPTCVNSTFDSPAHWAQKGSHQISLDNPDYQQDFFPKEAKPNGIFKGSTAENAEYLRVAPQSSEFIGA
Chain of Glutamate receptor ionotropic, kainate 1 (P39086 whole entry): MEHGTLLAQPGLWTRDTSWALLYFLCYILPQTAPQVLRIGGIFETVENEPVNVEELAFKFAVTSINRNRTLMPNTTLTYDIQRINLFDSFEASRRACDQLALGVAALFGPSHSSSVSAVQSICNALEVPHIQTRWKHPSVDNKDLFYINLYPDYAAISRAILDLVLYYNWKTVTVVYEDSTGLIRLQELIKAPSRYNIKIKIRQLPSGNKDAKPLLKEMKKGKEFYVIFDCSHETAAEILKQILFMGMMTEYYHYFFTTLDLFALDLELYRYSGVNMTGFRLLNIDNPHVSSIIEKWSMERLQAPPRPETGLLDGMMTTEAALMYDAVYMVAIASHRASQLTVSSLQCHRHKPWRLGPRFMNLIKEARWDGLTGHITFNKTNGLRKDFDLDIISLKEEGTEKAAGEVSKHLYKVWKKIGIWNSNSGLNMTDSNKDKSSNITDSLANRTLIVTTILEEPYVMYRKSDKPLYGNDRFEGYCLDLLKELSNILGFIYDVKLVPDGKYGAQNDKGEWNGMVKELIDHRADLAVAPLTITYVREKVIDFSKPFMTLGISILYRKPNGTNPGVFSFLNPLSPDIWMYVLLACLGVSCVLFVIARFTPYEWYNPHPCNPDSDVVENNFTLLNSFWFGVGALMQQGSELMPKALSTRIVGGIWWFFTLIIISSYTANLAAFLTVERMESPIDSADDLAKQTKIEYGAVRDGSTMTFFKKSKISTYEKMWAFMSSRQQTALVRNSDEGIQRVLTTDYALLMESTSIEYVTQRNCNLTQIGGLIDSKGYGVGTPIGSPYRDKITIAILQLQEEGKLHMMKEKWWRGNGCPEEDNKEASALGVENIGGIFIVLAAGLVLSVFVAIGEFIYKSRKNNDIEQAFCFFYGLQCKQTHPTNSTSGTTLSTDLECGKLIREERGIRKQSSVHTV
Chain of Glutamate receptor 2 (P42262 whole entry): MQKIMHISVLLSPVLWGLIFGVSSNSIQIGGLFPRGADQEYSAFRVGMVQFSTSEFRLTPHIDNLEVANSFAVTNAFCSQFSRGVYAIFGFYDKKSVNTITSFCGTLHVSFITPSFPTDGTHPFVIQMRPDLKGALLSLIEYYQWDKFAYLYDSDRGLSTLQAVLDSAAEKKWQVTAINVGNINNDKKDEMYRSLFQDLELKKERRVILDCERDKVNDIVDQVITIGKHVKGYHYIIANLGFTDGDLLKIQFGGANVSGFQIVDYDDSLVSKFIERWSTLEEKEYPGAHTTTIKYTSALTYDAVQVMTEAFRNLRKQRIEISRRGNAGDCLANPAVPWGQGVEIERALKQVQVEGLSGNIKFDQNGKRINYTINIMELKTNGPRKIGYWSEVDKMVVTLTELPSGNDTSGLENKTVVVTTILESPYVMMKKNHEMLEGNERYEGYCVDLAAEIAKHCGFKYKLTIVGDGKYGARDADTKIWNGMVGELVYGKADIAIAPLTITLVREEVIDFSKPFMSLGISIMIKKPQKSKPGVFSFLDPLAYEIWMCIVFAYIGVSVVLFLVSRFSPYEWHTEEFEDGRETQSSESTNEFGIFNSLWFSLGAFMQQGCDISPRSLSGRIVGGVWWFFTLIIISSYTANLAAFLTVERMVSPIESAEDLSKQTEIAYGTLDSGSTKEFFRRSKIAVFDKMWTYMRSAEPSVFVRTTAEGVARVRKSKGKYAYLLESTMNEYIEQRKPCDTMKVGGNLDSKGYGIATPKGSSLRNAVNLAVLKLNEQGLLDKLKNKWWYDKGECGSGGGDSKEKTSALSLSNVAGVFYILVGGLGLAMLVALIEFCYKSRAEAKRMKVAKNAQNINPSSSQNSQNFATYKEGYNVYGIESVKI
Chain of Glutamate receptor ionotropic, kainate 2 (Q13002 whole entry): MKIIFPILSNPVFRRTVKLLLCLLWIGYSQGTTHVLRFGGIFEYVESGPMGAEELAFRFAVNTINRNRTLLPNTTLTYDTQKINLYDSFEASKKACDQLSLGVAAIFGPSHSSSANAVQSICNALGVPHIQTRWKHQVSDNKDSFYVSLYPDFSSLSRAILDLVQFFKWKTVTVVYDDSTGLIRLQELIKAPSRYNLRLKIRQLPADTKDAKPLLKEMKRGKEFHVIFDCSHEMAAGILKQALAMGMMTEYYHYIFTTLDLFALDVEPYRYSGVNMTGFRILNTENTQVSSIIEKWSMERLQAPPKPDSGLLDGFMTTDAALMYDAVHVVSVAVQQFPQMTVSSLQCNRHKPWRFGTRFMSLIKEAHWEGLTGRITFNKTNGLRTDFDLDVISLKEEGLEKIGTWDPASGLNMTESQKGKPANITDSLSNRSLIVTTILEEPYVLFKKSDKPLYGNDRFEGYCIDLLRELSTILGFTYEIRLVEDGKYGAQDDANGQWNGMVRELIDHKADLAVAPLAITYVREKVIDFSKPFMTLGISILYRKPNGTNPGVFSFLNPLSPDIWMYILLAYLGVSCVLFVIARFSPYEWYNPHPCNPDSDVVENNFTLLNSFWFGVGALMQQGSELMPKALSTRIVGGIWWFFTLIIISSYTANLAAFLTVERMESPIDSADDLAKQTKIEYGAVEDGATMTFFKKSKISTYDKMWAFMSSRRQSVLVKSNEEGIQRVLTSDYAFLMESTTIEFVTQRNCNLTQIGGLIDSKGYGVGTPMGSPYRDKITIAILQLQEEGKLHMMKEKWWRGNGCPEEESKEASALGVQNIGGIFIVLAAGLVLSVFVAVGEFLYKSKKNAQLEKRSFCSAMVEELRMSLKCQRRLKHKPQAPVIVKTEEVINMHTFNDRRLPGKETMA

Turning to `O=c1[nH]c2cc([N+](=O)[O-])c([N+](=O)[O-])cc2[nH]c1=O` [DNQX], the concentration for half-maximal inhibition (IC50) in data set [1] stood at 0.93 µM; in data set [2] it was 1.4 µM; in [3], 2.2 µM.

For the compound `O=c1[nH]c2cc(CO)c(CO)cc2[nH]c1=O`, the results for the IC50 in [1], in [2] and in data set [3] were 9.3 µM, 9.2 µM and > 100 µM, respectively.

On to `Cc1noc(C)c1-c1ccc2c(c1)C(Cc1ccccc1)NC(=O)N2C` (stereo not given), for which the IC50 in data set [4] amounted to 0.032 µM.

Turning to `COC(=O)CCc1nc2ccc(Cl)cc2[nH]c1=O`, the 50% inhibitory concentration (IC50) is 23.3 µM in the data set with MCF7; 46.2 µM in the data set with HepG2; 1.34 µM in data set [5]; 0.0828 µM in data set [6]; 31.6 µM in the data set with HCT-116; 242 µM with WI-38.

For `O=C(Nn1c(=O)c(=O)[nH]c2cc(C#Cc3ccccc3)ccc21)c1ccccc1`, the Ki at Glutamate receptor 2 is 23.6 µM; in data set [7], > 100 µM; in data set [8], 100 µM; in data set [9], > 100 µM.

In the case of `CC(C)Cc1ccc(C(C)C(=O)O)cc1` (stereo not given) [IBUPROFEN], in the data set on Mus musculus, the Activity is 39.3%.

In the case of `O=C(O)c1nc2c(O)nc3cc(Cl)c(-n4cccc4)cc3n2n1`, the Ki in data set [1] and in [10] was 0.86 µM throughout. For the same compound, the IC50 in data set [3] stood at 36 µM; in data set [11], 11.7 µM; in data set [12], 3 µM; in data set [13], 52 µM.

Regarding `O=C(NCc1cc(Br)cc2nc(O)c(O)nc12)c1cccs1`, the half-maximal inhibitory concentration (IC50) came to 1.6 µM in data set [14] and 0.01 µM in [15].

`O=C(O)c1nc2c(=O)[nH]c3cc(Cl)c(-n4cnnc4)cc3n2n1` [TQX-173]: the Ki in data set [1] was 0.14 µM; in [10] it was 33.5 µM. The IC50 turned out to be 11.6 µM in data set [3], 2.3 µM in data set [12] and 46 µM in [13].

Regarding `Cc1ccccc1NCC(=O)N1CC(=O)Nc2ccccc21`, the “diameter of the inhibition zone (DIZ)” value in the data set on Staphylococcus aureus [16] was 15 mm; with Bacillus subtilis, 15 mm; in the data set with Escherichia coli [17], 15 mm; with Pseudomonas aeruginosa [18] it was 12 mm; in the data set on Salmonella typhimurium, 9 mm; with Streptococcus pneumoniae [19], 10 mm.

With `COc1ccc2ncc(=O)n(CCN3CCC(NCc4ccc5c(n4)NC(=O)CO5)CC3)c2c1`, the MIC came to 1 µg/mL (≈ 2.15 µM) with Pseudomonas aeruginosa [20], 0.03 µg/mL (≈ 0.0646 µM) against Staphylococcus aureus [21], 0.13 µg/mL (≈ 0.28 µM) against Escherichia coli [22] and 0.08 µg/mL (≈ 0.172 µM) against Streptococcus pneumoniae [26]. Besides, the IC50 in [23] is 0.0022 µM. For the same compound, the logD in data set [24] came to 0.6. Also, the pKa in data set [25] turned out to be 5.56.

`O=C1CN(CCCCCN2CCCCC2)c2ccc([N+](=O)[O-])cc2N1` displayed an Activity with Toxoplasma gondii of 92%.

For the compound `NNC(=O)/C=C1/Nc2ccc(Br)cc2NC1=O`, the IC50 with MCF7 turned out to be 16.9 µM; in the data set on HepG2, 18.6 µM; in data set [5], 1.55 µM; in data set [6] it was 0.0873 µM; in the data set with HCT-116, 28.4 µM; in the data set with WI-38, 227 µM.

`O=C(Cc1ccsc1)NCc1cc(Br)cc2nc(O)c(O)nc12`: the IC50 stood at 11.3 µM in data set [14] and 0.01 µM in data set [15].

`O=c1[nH]c2cc(C(F)(F)F)c(-n3ccnc3)nc2n2ccnc12` registered a Ki in [1] of 0.066 µM. The same compound gave an IC50 in data set [27] of 0.32 µM.

As a reminder, the IC50 is the midpoint of a concentration-inhibition curve. What is called Ki is the dissociation constant of the complex between target and ligand, obtained from inhibition or displacement. As a reminder, the MIC is the smallest concentration in the dilution series that meets the test's criterion for growth inhibition. The term logD denotes the decadic logarithm of the distribution of all forms, ionised or not, between an organic phase and buffer at a given pH. A word on the pKa: it is the pH at which an ionisable group is half protonated.

These data come from ChEMBL document CHEMBL5113380, “Functionalized quinoxalinones as privileged structures with broad-ranging pharmacological activities” (Eur J Med Chem, 2022).
